Several values for one entry are separate records, joined by “and”; a condition that tells them apart may be missing. Identical values can stand only once.
Legend:
Format in all cases: cell-based
Parameters in all cases: GPCRome screening signal at PTGIR / GPCRome screening signal at PTH1R / GPCRome screening signal at PTH2R / GPCRome screening signal at QRFP / GPCRome screening signal at RXFP2 / GPCRome screening signal at RXFP3 / GPCRome screening signal at RXFP4 / GPCRome screening signal at S1PR2 / GPCRome screening signal at S1PR3 / GPCRome screening signal at S1PR4 / GPCRome screening signal at S1PR5 / GPCRome screening signal at SCTR / GPCRome screening signal at SSTR2 / GPCRome screening signal at SSSTR / GPCRome screening signal at SSTR4 / GPCRome screening signal at SSTR5 / GPCRome screening signal at SUCNR1 / GPCRome screening signal at TA1 / GPCRome screening signal at TAAR2 / GPCRome screening signal at TAAR5 / GPCRome screening signal at TAAR6 / GPCRome screening signal at TAAR8 / GPCRome screening signal at TACR1 / GPCRome screening signal at TACR2 / GPCRome screening signal at TACR3 / GPCRome screening signal at TBXA2R / GPCRome screening signal at TSHR / GPCRome screening signal at UTS2R / GPCRome screening signal at VIPR2 / GPCRome screening signal at GPR68 no V2 Tail / GPCRome screening signal at GRM2 / GPCRome screening signal at GRM3: reference not given here
[1] = target: T1, 320 non-olfactory GPCRs (Homo sapiens, UniProt P16473); details: receptor TSHR
T1 construct: expressed in transfected cells; host or cells: HTLA cells
T1 sequence (P16473 21-764): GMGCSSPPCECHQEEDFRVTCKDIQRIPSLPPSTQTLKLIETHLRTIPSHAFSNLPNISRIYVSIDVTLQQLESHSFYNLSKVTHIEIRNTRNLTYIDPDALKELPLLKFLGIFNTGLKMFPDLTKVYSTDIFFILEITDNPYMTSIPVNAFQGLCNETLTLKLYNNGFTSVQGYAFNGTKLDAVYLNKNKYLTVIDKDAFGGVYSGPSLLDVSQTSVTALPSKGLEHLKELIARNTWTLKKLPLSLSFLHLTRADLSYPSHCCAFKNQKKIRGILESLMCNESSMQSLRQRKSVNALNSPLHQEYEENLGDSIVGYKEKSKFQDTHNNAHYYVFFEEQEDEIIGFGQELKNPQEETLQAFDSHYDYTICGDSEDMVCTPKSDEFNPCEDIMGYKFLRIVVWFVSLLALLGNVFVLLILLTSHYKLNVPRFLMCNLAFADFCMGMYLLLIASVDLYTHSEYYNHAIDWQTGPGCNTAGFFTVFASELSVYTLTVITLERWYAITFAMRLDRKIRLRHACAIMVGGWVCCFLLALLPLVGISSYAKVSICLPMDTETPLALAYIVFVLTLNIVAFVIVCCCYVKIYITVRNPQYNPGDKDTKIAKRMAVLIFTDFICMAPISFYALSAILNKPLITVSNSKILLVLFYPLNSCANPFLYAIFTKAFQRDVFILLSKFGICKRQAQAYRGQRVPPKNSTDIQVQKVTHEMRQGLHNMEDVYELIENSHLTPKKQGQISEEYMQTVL

[2] = target: 320 non-olfactory GPCRs (Homo sapiens, UniProt P31391); details: receptor SSTR4
Chain of 320 non-olfactory GPCRs (Homo sapiens, UniProt P31391) (P31391 whole entry): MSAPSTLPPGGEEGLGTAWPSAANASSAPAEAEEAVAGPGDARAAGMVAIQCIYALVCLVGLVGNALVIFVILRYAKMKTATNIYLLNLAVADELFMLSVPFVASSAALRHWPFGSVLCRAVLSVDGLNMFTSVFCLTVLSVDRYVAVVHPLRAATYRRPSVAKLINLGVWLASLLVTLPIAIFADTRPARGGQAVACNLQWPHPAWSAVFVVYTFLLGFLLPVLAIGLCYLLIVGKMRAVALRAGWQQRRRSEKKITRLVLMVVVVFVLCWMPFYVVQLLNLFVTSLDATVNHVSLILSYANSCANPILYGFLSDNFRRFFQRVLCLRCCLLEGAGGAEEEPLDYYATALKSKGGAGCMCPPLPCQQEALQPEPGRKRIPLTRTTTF

[3] = target: 320 non-olfactory GPCRs (Homo sapiens, UniProt P47872); details: receptor SCTR
Chain of 320 non-olfactory GPCRs (Homo sapiens, UniProt P47872) (P47872 23-440): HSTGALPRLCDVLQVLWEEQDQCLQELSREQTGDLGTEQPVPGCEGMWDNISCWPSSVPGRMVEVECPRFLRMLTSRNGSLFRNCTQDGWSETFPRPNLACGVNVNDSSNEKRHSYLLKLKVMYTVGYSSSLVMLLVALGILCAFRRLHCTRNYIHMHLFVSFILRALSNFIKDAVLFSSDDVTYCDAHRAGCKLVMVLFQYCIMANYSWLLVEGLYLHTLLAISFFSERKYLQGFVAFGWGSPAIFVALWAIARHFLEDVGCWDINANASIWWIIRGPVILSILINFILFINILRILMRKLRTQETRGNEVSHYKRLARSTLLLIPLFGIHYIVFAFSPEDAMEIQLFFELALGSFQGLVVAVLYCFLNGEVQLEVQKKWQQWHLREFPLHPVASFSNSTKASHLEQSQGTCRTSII

[4] = target: 320 non-olfactory GPCRs (Homo sapiens, UniProt Q99500); details: receptor S1PR3
Chain of 320 non-olfactory GPCRs (Homo sapiens, UniProt Q99500) (Q99500 whole entry): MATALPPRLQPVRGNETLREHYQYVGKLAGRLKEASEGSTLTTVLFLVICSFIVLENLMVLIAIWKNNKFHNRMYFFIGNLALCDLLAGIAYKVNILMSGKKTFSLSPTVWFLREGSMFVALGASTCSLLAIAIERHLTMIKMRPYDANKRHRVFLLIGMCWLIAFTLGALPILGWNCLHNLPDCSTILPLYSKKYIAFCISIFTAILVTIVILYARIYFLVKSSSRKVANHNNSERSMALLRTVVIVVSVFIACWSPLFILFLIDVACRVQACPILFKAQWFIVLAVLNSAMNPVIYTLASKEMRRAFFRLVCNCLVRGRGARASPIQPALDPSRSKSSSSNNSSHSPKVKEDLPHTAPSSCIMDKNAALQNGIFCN

[5] = Fig_5f, single replicate values
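For GPCRome agonism screen response in this document: fold over basal response of each receptor without drug.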

GPCRome screening signal at TSHR [1, 5] | GPCRome screening signal at SSTR4 [2, 5] | GPCRome screening signal at SCTR [3, 5] | GPCRome screening signal at S1PR3 [4, 5] | SMILES | GPCRome agonism screen response ([1]; replicate values, Fig_4g) | GPCRome agonism screen response ([2]; replicate values, Fig_4g) | GPCRome agonism screen response ([3]; replicate values, Fig_4g) | GPCRome agonism screen response ([4]; replicate values, Fig_4g)
0.6627 and 1.386 and 0.8068 and 1.0471 | 1.303 and 1.0005 and 1.096 and 1.043 | 1.0412 and 0.8528 and 0.88 and 1.015 | 1.578 and 1.076 and 2.206 and 1.217 | CCOc1ccccc1CCC(C)NCC1(O)CCCCC1.Cl (racemic) [Fig_5f] |  |  |  | 
 |  |  |  | CCOc1cccc2cc(C(C)NCC3(O)CCCCC3)oc12 (centres unmarked) [O4LE6] | 0.633 and 1.167 and 0.8187 and 0.6635 | 1.584 and 2.327 and 0.4288 and 0.2624 | 0.9841 and 0.1649 and 1.315 and 1.208 | 2.336 and 1.6343 and 1.172 and 1.379

Reference: paper PMC7044277 (Nature Communications, 2020)
